Reference: PubChem BioAssay (NCI)
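Following 48 hours of exposure in 96-well plates, responses at five concentrations were used to interpolate endpoints linearly. At the GI50, growth is halved. TGI: total growth inhibition.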

Legend:
Experiment in all cases: growth of human tumour cells (NCI), 48 h
[1] = tested on: A549 NSCLC
[2] = tested on: CCRF-CEM leukemia
[3] = tested on: HL-60(TB) leukemia
[4] = tested on: K-562 leukemia
[5] = tested on: KM12 colon
[6] = tested on: MOLT-4 leukemia
[7] = tested on: NCI-H23 lung
[8] = tested on: NCI-H522 lung
[9] = tested on: SF-268 CNS
[10] = tested on: SNB-19 CNS

Row | Structure (SMILES) | TGI [1] [µM] | TGI [2] [µM] | TGI [3] [µM] | TGI [4] [µM] | TGI [5] [µM] | TGI [6] [µM] | TGI [7] [µM] | TGI [8] [µM] | TGI [9] [µM] | TGI [10] [µM] | GI50 [1] [µM] | GI50 [2] [µM] | GI50 [3] [µM] | GI50 [4] [µM] | GI50 [5] [µM] | GI50 [6] [µM] | GI50 [7] [µM] | GI50 [8] [µM] | GI50 [9] [µM] | GI50 [10] [µM]
1 | CCOC(=O)C1=C(C)N(C2OC(COC(=O)c3ccccc3)C(OC(=O)c3ccccc3)C2OC(=O)c2ccccc2)C(=S)NC1c1ccccc1 (stereo not given) | > 100 | > 100 | 33.9 | 91.7 | > 100 | 80.6 | > 100 | 66.1 | > 100 | > 100 | – | – | – | – | – | – | – | – | – | –
2 | C(=C/c1nc2ccccc2o1)/c1ccc2c(c1)OCO2 | > 81.4 | > 100 | > 96.5 | > 65.3 | 26.1 | > 100 | > 100 | 51.3 | > 100 | 38.6 | – | – | – | – | – | – | – | – | – | –
3 | CN/N=C(\C(=O)Nc1ccc(C)c(C)c1)C(C(=O)OC)c1nc2ccc([N+](=O)[O-])cc2[nH]c1=O (stereo not given) | > 100 | > 100 | > 100 | > 100 | > 100 | > 100 | > 100 | 70.9 | > 100 | > 100 | – | – | – | – | – | – | – | – | – | –
4 | CCOC(C)OC1CC(n2cc(C)c(=O)[nH]c2=O)OC1CO (stereo not given) | > 100 | > 100 | > 100 | > 100 | > 100 | > 100 | > 100 | > 100 | > 100 | > 100 | – | – | – | – | – | – | – | – | – | –
5 | C=C(C)[C@@H]1CC[C@]2(CO)CC[C@]3(C)[C@H](CC[C@@H]4[C@@]5(C)CC[C@H](NCO)C(C)(C)[C@@H]5CC[C@]43C)[C@@H]12 | 1.73 | 3.21 | 2.32 | 3.59 | 1.63 | 2.56 | 1.67 | 2.01 | 1.92 | 1.82 | 0.885 | 1.02 | 1 | 0.974 | 0.886 | 1 | 0.869 | 1.03 | 0.944 | 0.95
6 | CCOC(=O)C(C)N1C(=O)c2ccccc2S1(=O)=O (stereo not given) | > 100 | > 100 | > 100 | > 100 | > 100 | > 100 | > 100 | > 100 | > 100 | > 100 | – | – | – | – | – | – | – | – | – | –
7 | C=C(C)[C@@H]1CC[C@]2(C(=O)NC(C)=O)CC[C@]3(C)[C@H](CC[C@@H]4[C@@]5(C)CCCNC(C)(C)[C@@H]5CC[C@]43C)[C@@H]12 | 3.33 | 4.55 | 3.2 | 3.18 | 2.9 | 3.86 | 3.51 | 3.56 | 3.25 | 2.96 | 1.61 | 1.65 | 1.35 | 1.12 | 1.51 | 1.4 | 1.76 | 1.66 | 1.69 | 1.6
8 | CN1CN(C(=O)N2CN(C)C(=O)N(C)C2)CN(C)C1=O | > 100 | > 100 | > 100 | > 100 | > 100 | > 100 | – | > 100 | > 100 | > 100 | – | – | – | – | – | – | – | – | – | –
9 | NC(=O)Oc1ccccc1 | > 100 | > 100 | > 100 | > 100 | > 100 | > 100 | > 100 | > 100 | > 100 | > 100 | – | – | – | – | – | – | – | – | – | –
10 | O=C(CCC1CCCCN1)Nc1ccc2c(c1)C(=O)c1ccc(NC(=O)CCN3CCCCC3)cc1C2=O (stereo not given) | 33.4 | 4.86 | – | 4.97 | 6.99 | – | 5.27 | – | 25.4 | – | – | 1.12 | – | – | – | – | – | – | – | –
11 | CCOC(=O)Cn1c(=O)c(C)cn(COCCO)c1=O | > 100 | – | > 100 | > 100 | > 100 | > 100 | > 100 | > 100 | > 100 | > 100 | – | – | – | – | – | – | – | – | – | –
12 | COc1ccc(C2=NC(c3ccc(Cl)cc3)C(c3ccc(Cl)cc3)N2C(=O)N2CCNC(=O)C2)c(OC(C)C)c1 (stereo not given) | 5.61 | > 10 | > 10 | > 10 | 3.69 | > 10 | 3.45 | 4.09 | 3.97 | 4.91 | 2.22 | 3.85 | 3.62 | 3.47 | 1.84 | 3.39 | 1.83 | 2.09 | 2.11 | 2.08
13 | CC1OC(=O)C(C(C)C)NC(=O)C(C(C)C)OC(=O)C(C(C)C)NC(=O)C(C)OC(=O)C(C(C)C)NC(=O)C(C(C)C)OC(=O)C(C(C)C)NC(=O)C(C)OC(=O)C(C(C)C)NC(=O)C(C(C)C)OC(=O)C(C(C)C)NC1=O (stereo not given) | 2.98 | 4.2 | – | 6.36 | – | 0.00858 | 0.0503 | < 0.0001 | 5.09 | 1.25 | – | – | < 0.0001 | < 0.0001 | < 0.0001 | < 0.0001 | < 0.0001 | < 0.0001 | – | < 0.0001
